Values quoted from earlier work, collected in the CATMoS acute toxicity set (Mansouri et al. 2021).
“And” between values parts separate entries of the source, which are not always exact repeats. Equal values may be shown once.

Assay: rat acute oral toxicity
Details: in vivo

**Q.** With `Nc1ccc([N+](=O)[O-])cc1[N+](=O)[O-]` as the compound, how does the LD50 read?
**A.** The LD50 was 285 mg/kg.

**Q.** With `COP(=S)(OC)Oc1ccc2c(C)cc(=O)oc2c1` as the compound, how does the LD50 read?
**A.** The LD50 was 15.6 mg/kg.

**Q.** With `CCN=c1nc(Cl)[nH]c(=NC(C)CC)[nH]1` (centres undefined) as the compound, how does the LD50 read?
**A.** Its LD50 is 3000 mg/kg.

**Q.** Which LD50 does the source give for `CN(C)c1c(Cl)c(Cl)c(Cl)c2nc(C(F)(F)F)[nH]c12` here?
**A.** Its LD50 is 22 mg/kg.

**Q.** Which LD50 does the source give for `c1ccc(Nc2ccc3ccccc3c2)cc1` here?
**A.** The LD50 was 8730 mg/kg.

**Q.** For `NS(=O)(=O)c1ccc(Cl)c(S(N)(=O)=O)c1`, which LD50 is on record?
**A.** The LD50 was 340 mg/kg.

**Q.** With `CCCCOC(C)OCCCC` as the compound, how does the LD50 read?
**A.** The LD50 was 8790 mg/kg.

**Q.** With `C=CCc1cc(OC)c2c(c1)OCO2` as the compound, how does the LD50 read?
**A.** Its LD50 is 4260 mg/kg.

**Q.** Which LD50 does the source give for `CCCCOC(=S)SC(=S)OCCCC` here?
**A.** Its LD50 is 1400 mg/kg.

**Q.** With `c1cc2c(cc1CCC(CCc1ccc3c(c1)OCO3)N1CCCC1)OCO2` as the compound, how does the LD50 read?
**A.** Its LD50 is 565 mg/kg.

**Q.** Which LD50 does the source give for `COc1ccc(CCN(C)CCc2ccc(OC)c(OC)c2)cc1OC` here?
**A.** The LD50 was 178 mg/kg.

**Q.** With `COP(=S)(OC)OC1CC(C)CCC1C(C)C` (centres undefined) as the compound, how does the LD50 read?
**A.** The LD50 was 750 mg/kg.

**Q.** For `Cc1c(Cl)c(Cl)c(Cl)c(C(Cl)Cl)c1Cl`, which LD50 is on record?
**A.** Its LD50 is 2920 mg/kg.

**Q.** Which LD50 does the source give for `COc1cccc(N)c1` here?
**A.** Its LD50 is 526 mg/kg.

**Q.** With `C=C(CO)C(=O)OCC` as the compound, how does the LD50 read?
**A.** Its LD50 is 620 mg/kg.

**Q.** For `COc1ccc(SP(=S)(CCl)OC(C)C)cc1` (centres undefined), which LD50 is on record?
**A.** The LD50 was 108 mg/kg.

**Q.** For `SCCS`, which LD50 is on record?
**A.** The LD50 was 120 mg/kg.

**Q.** With `CCCCCCCCCCCCCCCC[N+](C)(C)CC(=O)[O-]` as the compound, how does the LD50 read?
**A.** The LD50 was 1620 mg/kg.

**Q.** Which LD50 does the source give for `NS(=O)(=O)c1cc2c(cc1Cl)NC(CC1CCCC1)NS2(=O)=O` (centres undefined) here?
**A.** Its LD50 is 1000 mg/kg.

**Q.** With `CN1CCCN=C1COC(=O)C(O)(c1ccccc1)C1CCCCC1` (centres undefined) as the compound, how does the LD50 read?
**A.** The LD50 was 1370 mg/kg.

**Q.** For `CCCCP(CCCC)CCCC`, which LD50 is on record?
**A.** The LD50 was 750 mg/kg.

**Q.** For `CCN(CC)CCNC(=O)C(C)(C)Oc1ccc(Cl)cc1`, which LD50 is on record?
**A.** The LD50 was 300 mg/kg.

**Q.** With `O=C(CN1CCOCC1)N/N=C/c1ccc([N+](=O)[O-])o1` as the compound, how does the LD50 read?
**A.** Its LD50 is 420 mg/kg.

**Q.** Which LD50 does the source give for `CC(C)OC(=S)S` here?
**A.** Its LD50 is 1700 mg/kg and 1250 mg/kg.

**Q.** For `C=CC(=O)Nc1ccc(O)cc1`, which LD50 is on record?
**A.** The LD50 was 930 mg/kg.

**Q.** With `CCOP(=S)(OCC)SCn1nc(Br)ccc1=O` as the compound, how does the LD50 read?
**A.** Its LD50 is 30 mg/kg.

**Q.** Which LD50 does the source give for `CC(=O)OC(c1ccccc1)C(Cl)(Cl)Cl` (centres undefined) here?
**A.** Its LD50 is 6800 mg/kg.

**Q.** For `COc1ccc2c(c1)c(CC(=O)Oc1cccc(C)c1)c(C)n2C(=O)c1ccc(Cl)cc1`, which LD50 is on record?
**A.** The LD50 was 98 mg/kg.

**Q.** Which LD50 does the source give for `O=C1O[C@@H]2[C@@H](O)[C@H](O)O[C@@H]2[C@H]1O` here?
**A.** The LD50 was 10700 mg/kg.

**Q.** For `Cc1ccc(N=CN(C)Sc2ccc(Cl)cc2)c(C)c1`, which LD50 is on record?
**A.** Its LD50 is 320 mg/kg.

**Q.** With `C=CCOP(OCC=C)OCC=C` as the compound, how does the LD50 read?
**A.** Its LD50 is 178 mg/kg.

**Q.** Which LD50 does the source give for `CS(=O)(=O)OC[C@@H]1O[C@H]1[C@@H]1O[C@H]1COS(C)(=O)=O` here?
**A.** The LD50 was 225 mg/kg.

**Q.** With `C=CBr` as the compound, how does the LD50 read?
**A.** The LD50 was 500 mg/kg.

**Q.** With `O=C1CC(=O)N(c2ccccc2)N1c1ccccc1` as the compound, how does the LD50 read?
**A.** Its LD50 is 1000 mg/kg.

**Q.** Which LD50 does the source give for `CC(C)CCCC(C)N` (centres undefined) here?
**A.** Its LD50 is 538 mg/kg.

**Q.** For `CN1CCC[C@@H]1CCO[C@](C)(c1ccccc1)c1ccc(Cl)cc1`, which LD50 is on record?
**A.** Its LD50 is 3550 mg/kg.

**Q.** Which LD50 does the source give for `CCc1cc(C(N)=S)ccn1` here?
**A.** The LD50 was 1320 mg/kg.

**Q.** For `O=C(OC1CCC(N2CCCCC2)CC1)c1ccc([N+](=O)[O-])cc1` (centres undefined), which LD50 is on record?
**A.** Its LD50 is 3250 mg/kg.

**Q.** For `CC12CC1(C)C(=O)N(c1cc(Cl)cc(Cl)c1)C2=O` (centres undefined), which LD50 is on record?
**A.** The LD50 was 7000 mg/kg.

**Q.** For `CC(C)(C(=O)O)S(C)(=O)=O`, which LD50 is on record?
**A.** Its LD50 is 5700 mg/kg.

**Q.** For `COP(=O)(OC)OC(C)=CC(=O)Oc1ccc(C)cc1`, which LD50 is on record?
**A.** Its LD50 is 176 mg/kg.

**Q.** For `c1cc2ccc3cccc4ccc(c1)c2c34`, which LD50 is on record?
**A.** The LD50 was 2700 mg/kg.

**Q.** For `COc1ccc2c(c1)c(CC(=O)OC(C)c1ccccc1)c(C)n2C(=O)c1ccc(Cl)cc1` (centres undefined), which LD50 is on record?
**A.** The LD50 was 425 mg/kg.

**Q.** For `Cc1ccnc(SCCC(F)=C(F)F)n1`, which LD50 is on record?
**A.** The LD50 was 844 mg/kg.

**Q.** With `CCC1(c2ccccc2)CCNC1=O` (centres undefined) as the compound, how does the LD50 read?
**A.** The LD50 was 990 mg/kg.

**Q.** For `CCC1OC(C)SC1=NOC(=O)NC` (centres undefined), which LD50 is on record?
**A.** The LD50 was 15 mg/kg.

**Q.** For `CCCCNCCC[Si](OC)(OC)OC`, which LD50 is on record?
**A.** Its LD50 is 12800 mg/kg.

**Q.** Which LD50 does the source give for `C=C(O)C(=O)O` here?
**A.** The LD50 was 10000 mg/kg.

**Q.** Which LD50 does the source give for `Nc1nnc(C=Cc2ccc([N+](=O)[O-])o2)s1` here?
**A.** The LD50 was 1880 mg/kg.

**Q.** For `FC(F)(F)c1nnc2c3ccccc3ccn12`, which LD50 is on record?
**A.** Its LD50 is 660 mg/kg.

**Q.** For `O=C(O)CCC(=O)OC1CCCCC1`, which LD50 is on record?
**A.** The LD50 was 6500 mg/kg.

**Q.** With `C=CCn1ccc(=O)c(O)c1C` as the compound, how does the LD50 read?
**A.** Its LD50 is 800 mg/kg.

**Q.** Which LD50 does the source give for `CCN(CC)CCOC(=O)Cc1ccc2c(c1)OCc1ccccc1C2=O` here?
**A.** The LD50 was 150 mg/kg.

**Q.** For `CC(C)OC(=O)C(C(=O)OC(C)C)=C1SCCS1`, which LD50 is on record?
**A.** Its LD50 is 1190 mg/kg.

**Q.** With `O=C(OCCOC(=O)c1ccccc1)c1ccccc1` as the compound, how does the LD50 read?
**A.** Its LD50 is 5340 mg/kg.

**Q.** Which LD50 does the source give for `Cc1cccc(C)c1N` here?
**A.** The LD50 was 2040 mg/kg.

**Q.** Which LD50 does the source give for `CCOC(=O)c1ccc(OC(=O)CCCCCNC(=N)N)cc1` here?
**A.** The LD50 was 6480 mg/kg.

**Q.** For `O=C(Cl)CCl`, which LD50 is on record?
**A.** Its LD50 is 208 mg/kg.

**Q.** With `COP(=O)(SC)SC` as the compound, how does the LD50 read?
**A.** The LD50 was 26 mg/kg.

**Q.** For `Oc1ccccc1-c1ccccc1`, which LD50 is on record?
**A.** Its LD50 is 656 mg/kg and 1050 mg/kg.

**Q.** With `CN(Sc1ccccc1)C(=O)Oc1cccc2c1OC(C)(C)C2` as the compound, how does the LD50 read?
**A.** The LD50 was 25 mg/kg.

**Q.** For `Cc1cccc(N)n1`, which LD50 is on record?
**A.** Its LD50 is 100 mg/kg.

**Q.** Which LD50 does the source give for `CCCCCCCCCCCC(=O)OC1=C(c2c(C)cc(C)cc2C)C(=O)c2ccccc21` here?
**A.** The LD50 was 9500 mg/kg.

**Q.** For `CN(C)C(CSS(=O)(=O)c1ccccc1)CSS(=O)(=O)c1ccccc1`, which LD50 is on record?
**A.** The LD50 was 1100 mg/kg.

**Q.** With `O=C(SCc1ccccc1)N1CCOCC1` as the compound, how does the LD50 read?
**A.** Its LD50 is 50 mg/kg.

**Q.** For `CN1CCC(N(Cc2cccs2)c2ccccc2)CC1`, which LD50 is on record?
**A.** The LD50 was 1060 mg/kg.

**Q.** For `O=Cc1ccc(CO)o1`, which LD50 is on record?
**A.** The LD50 was 2500 mg/kg.

**Q.** With `CC(C)OC(=O)C(C(=O)OC(C)C)=C1SC=CS1` as the compound, how does the LD50 read?
**A.** Its LD50 is 2060 mg/kg.

**Q.** With `CC(C)(O)C(=O)c1ccc(OCCO)cc1` as the compound, how does the LD50 read?
**A.** Its LD50 is 4080 mg/kg.

**Q.** For `C=CCOc1ccccc1C(=O)NCCO`, which LD50 is on record?
**A.** The LD50 was 1150 mg/kg.

**Q.** With `CCCCCOc1cccc(NC(=O)O[C@@H]2CCCC[C@H]2N2CCCC2)c1` as the compound, how does the LD50 read?
**A.** Its LD50 is 1030 mg/kg.

**Q.** Which LD50 does the source give for `CO[Si](CCCCCCCCCC[Si](OC)(OC)OC)(OC)OC` here?
**A.** The LD50 was 2200 mg/kg.

**Q.** Which LD50 does the source give for `N#CCCN(CCN)CCN` here?
**A.** The LD50 was 4550 mg/kg.

**Q.** Which LD50 does the source give for `CSN(C)C(=O)Oc1cccc2c1OC(C)(C)C2` here?
**A.** The LD50 was 5 mg/kg.
